The text below walks through data of PubChem BioAssay (NCI).

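Following 48 hours of exposure in 96-well plates, responses at five concentrations were used to interpolate endpoints linearly. Here, GI50 denotes the concentration required for 50% inhibition of growth. Definition used: TGI = concentration required for complete inhibition of growth.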

Holding throughout (experiment): NCI anticancer screen, dose series, 48 h
The test system of assay [1] is CCRF-CEM leukemia.
Assay [2] concerns HCT-116 colon.
In assay [3] the test system is NCI-H23 lung.
Assay [4] relates to IGROV1 ovarian.
In assay [5] the test system is SR leukemia.
Assay [6] relates to SNB-19 CNS.
Assay [7] relates to HOP-92 NSCLC.
For assay [8], the system named is NCI-H226 lung.
Assay [9] concerns UO-31 renal.
The test system of assay [10] is MOLT-4 leukemia.

Turning to `COc1ccc(CCN2CCC(Nc3nc4ccccc4n3Cc3ccc(F)cc3)CC2)cc1`, the GI50 in assay [1] is 1.87 µM; in assay [2], 1.21 µM; in assay [3], 1.69 µM; in [4], 2.01 µM; in [5], 1.58 µM; in assay [6] it was 1.77 µM. For the same molecule, the GI50 in assay [7] is 0.406 µM; in assay [8], 1.55 µM; in assay [9] it was 1.29 µM; in [10] it was 1.67 µM. In addition, the TGI in assay [1] was 5.45 µM; in assay [2], 2.44 µM; in assay [3], 3.5 µM; in assay [4], 4.27 µM; in assay [5], 3.83 µM; in assay [6] it was 3.93 µM. Besides, the TGI in assay [7] was found to be 2.29 µM; in assay [8], 3.09 µM; in assay [9], 2.62 µM; in assay [10] it was 4.71 µM.

In the case of `N=c1n(Cc2ccccc2)c(N)cc(=O)n1Cc1ccccc1`, the GI50 is 1.63 µM in [1]; 2.74 µM in assay [2]; 1.48 µM in assay [3]; 4.04 µM in [4]; 2.28 µM in assay [5]; 5.04 µM in [6]. Further, the GI50 in assay [7] is 2.06 µM; in [8], 3.45 µM; in [9], 2.35 µM; in assay [10], 1.24 µM. Further, the TGI in assay [1] was 8.65 µM; in [2], 10.7 µM; in assay [3] it was 5.96 µM; in [4], greater than 59.8 µM; in assay [5] it was 7.53 µM; in assay [6], 18.2 µM. The TGI in [7] turned out to be 10 µM; in [8], 9.56 µM; in assay [9], 5.37 µM; in [10] it was 5.38 µM.

Turning to `O=C(Nc1ccc(OCc2nnc(-c3ccccc3)o2)c(F)c1)Nc1ccc(Cl)c(C(F)(F)F)c1`, the GI50 is 2.38 µM in [1]; 1.81 µM in assay [2]; 2.37 µM in [3]; 2.12 µM in assay [4]; 1.37 µM in assay [5]; 2.35 µM in [6]. The GI50 in assay [7] was 1.78 µM; in assay [8], 3.65 µM; in [9], 1.49 µM; in assay [10], 1.61 µM. The TGI is 10.6 µM in assay [1]; 6.37 µM in assay [2]; 8.09 µM in assay [3]; 5.23 µM in [4]; 4.31 µM in assay [5]; 16.7 µM in assay [6]. For the same molecule, the TGI was 5.17 µM in assay [7], 28.3 µM in assay [8], 2.93 µM in assay [9] and 7.13 µM in assay [10].

As to `OCC1OC2OC3C(CO)OC(OC4C(CO)OC(OC5C(CO)OC(OC6C(CO)OC(OC7C(CO)OC(OC1C(O)C2O)C(O)C7O)C(O)C6O)C(O)C5O)C(O)C4O)C(O)C3O` (stereo not given) (tested in a mixture with another compound), the TGI in assay [1] is greater than 100 µM; in assay [2], greater than 100 µM; in assay [3], greater than 100 µM; in assay [4] it was greater than 100 µM; in assay [5], 34.3 µM; in assay [6] it was greater than 100 µM. In addition, the TGI in assay [7], in assay [8], in assay [9] and in assay [10] was greater than 100 µM throughout.

Turning to `CCC[CH2][Sn]1([CH2]CCC)[O]CC(CN2CCOCC2)[O]1` (stereo not given), the GI50 in [1] is 0.995 µM; in assay [2] it was 8.84 µM; in [3] it was 2.41 µM; in assay [4], 12.1 µM; in assay [5], 1.56 µM; in [6], 7.65 µM. The GI50 is 3.7 µM in assay [7], 20.2 µM in assay [8], 10.1 µM in [9] and 2.22 µM in [10]. Also, the TGI in assay [1] was determined as 4.84 µM; in assay [2] it was 21 µM; in [3], 6.13 µM; in [4], 26.1 µM; in assay [5] it was 6.13 µM; in assay [6], 19.6 µM. Moreover, the TGI in [7] came out at 14 µM; in assay [8], 34.8 µM; in [9], 21.7 µM; in [10] it was 7.88 µM.

`COc1ccc(-c2cc(-c3cc(C)ccc3O)[nH]c(=O)n2)cc1`: the TGI in [1], in assay [2], in assay [3], in assay [4], in assay [5] and in assay [6] was greater than 100 µM each time. Also, the TGI in [7], in assay [8], in assay [9] and in assay [10] was greater than 100 µM throughout.

For `COc1ccc(NC(=O)CC(=O)N2N=C(N(CCC#N)c3cccc(C)c3)CC2c2ccccc2)cc1` (stereo not given), the TGI in [1], in assay [2], in assay [3], in assay [4], in assay [5] and in [6] was greater than 100 µM throughout. Moreover, the TGI in [7], in [8], in assay [9] and in assay [10] was greater than 100 µM in each case.

On to `O=C(CN1C(=O)S/C(=C\C(Cl)=C\c2ccccc2)C1=O)NCCc1ccc(O)cc1`, for which the GI50 in [1] was 2.16 µM; in [2] it was 1.42 µM; in assay [3], 2.29 µM; in assay [4], 1.76 µM; in assay [5], 0.955 µM; in [6] it was 2.54 µM. The GI50 was 1.58 µM in assay [7], 1.99 µM in [8], 1.64 µM in assay [9] and 2.38 µM in assay [10]. The TGI in assay [1] was greater than 100 µM; in assay [2] it was 3.1 µM; in assay [3], 6.15 µM; in [4], 3.9 µM; in [5], greater than 100 µM; in assay [6], 9.46 µM. Further, the TGI in assay [7] was 5.05 µM; in [8] it was 4.4 µM; in assay [9], 3.31 µM; in [10] it was greater than 100 µM.

Regarding `CCOC(=O)N[C@@H]1C2CC(=O)C(O2)[C@@H]1OC` (stereo not given in full), the TGI in [1], in assay [2], in assay [3], in assay [4], in assay [5] and in [6] was greater than 100 µM in each case. The TGI in assay [7], in assay [8], in assay [9] and in assay [10] was greater than 100 µM each time.
